# Data: patent US6759408B2 (Wyeth, priority 1999, dated 2004)
# System: rat uterine decidualization
# Assay: Rat decidualization assay
# Assay type: in vivo
# Details: read-out: CV-1 IC50 (mg/kg): Percentage inhibition at the dose specified
# Procedure: 1. Rat Decidualization Assay
# b. Animals (RACUC Protocol #5002)
# The animals are treated once daily for seven days.
# Uteri are removed and trimmed of fat.
# Body weight: Mean total animal body weight (default-kg)
# Decidual response: [(D-C)/C]×100%
row,Structure (SMILES),inhibition in vivo at 10 mg/kg [%]
1,"Cc1cc(C#N)sc1-c1ccc2c(c1)C1(CCCCC1)OC(=O)N2 [Compound 10, 5-(1,2-Dihydro-2-oxospiro[4H-3,1-benzoxazine-4,1-cyclohexan]-6-yl)-4-methyl-2-thiophenecarbonitrile]",50
2,"N#Cc1ccc(-c2ccc3c(c2)C2(CCCCC2)OC(=O)N3)s1 [Compound 11, 5-(1,2-Dihydro-2-oxospiro[4H-3,1-benzoxazine-4,1-cyclohexan]-6-yl)-2-thiophenecarbonitrile]",50

# System: not given
# Assay: not given
# Details: not given
row,Structure (SMILES),melting point
1,"Cc1cc(C#N)sc1-c1ccc2c(c1)C1(CCCCC1)OC(=O)N2 [Compound 10, 5-(1,2-Dihydro-2-oxospiro[4H-3,1-benzoxazine-4,1-cyclohexan]-6-yl)-4-methyl-2-thiophenecarbonitrile]",200 to 203 °C
2,"CC1(C)OC(=O)Nc2ccc(-c3csc(C#N)c3)cc21 [Compound 17, 4-(4,4-Dimethyl-2-oxo-1,4-dihydro-2H-benzo[d][1,3]oxazin-6-yl)-thiophene-2-carbonitrile]",230 to 231 °C (dec.)
3,"Cc1cc(C#N)sc1-c1ccc2c(c1)C(C)(C)OC(=O)N2 [Compound 18, 5-(4,4-Dimethyl-2-oxo-1,4-dihydro-2H-benzo[d][1,3]oxazin-6-yl)-4-methyl-thiophene-2-carbonitrile]",195 to 200 °C
4,"CC1(C)OC(=O)Nc2ccc(-c3cncc(C#N)c3)cc21 [Example 16, 5-(4,4-Dimethyl-2-oxo-1,4-dihydro-2H-benzo[d][1,3]oxazin-6-yl)-nicotinonitrile]",290 to 291 °C
5,"CC1(C)OC(=O)Nc2ccc(-c3coc(C#N)c3)cc21 [Example 23, 4-(4,4-Dimethyl-2-oxo-1,4-dihydro-2H-benzo[d][1,3]oxazin-6-yl)-furan-2-carbonitrile]",255 to 256 °C
6,"O=C1Nc2ccc(-c3cc(F)cc(Br)c3)cc2C(C2CC2)(C2CC2)O1 [Example 54, 6-(3-Bromo-5-fluoro-phenyl)-4,4-dicyclopropyl-1,4-dihydrobenzo-[d][1,3]oxazin-2-one]",228 to 229 °C
7,"Cc1cc(Br)cc(-c2ccc3c(c2)C(C)(C)OC(=O)N3)c1 [Example 56, 6-(3-Bromo-5-methyl-phenyl)-4,4-dimethyl-1,4-dihydrobenzo-[d][1,3]oxazin-2-one]",231 to 233 °C
8,"Cc1cc(C#N)cc(-c2ccc3c(c2)C(C)(C)OC(=O)N3)c1 [Example 58, 3-(4,4-Dimethyl-2-oxo-1,4-dihydro-2H-benzo[d][1,3]oxazin-6-yl)-5-methyl-benzonitrile]",256 to 258 °C
9,"CC1(C)OC(=O)Nc2ccc(-c3cc(C#N)cc(C#N)c3)cc21 [Example 80, 5-(4,4-Dimethyl-2-oxo-1,4-dihydro-2H-benzo[d][1,3]oxazin-6-yl)-isophthalonitrile]",288 to 289 °C
10,"CC1(C)OC(=O)Nc2ccc(-c3sccc3C#N)cc21 [Example 91, 2-(4,4-Dimethyl-2-oxo-1,4-dihydro-2H-benzo[d][1,3]oxazin-6-yl)-thiophene-3-carbonitrile]",200 to 202 °C
11,"CC1(C)OC(=O)Nc2ccc(-c3cc(F)cc(-c4ccsc4)c3)cc21 [Example 93, 6-(3-Fluoro-5-thiophen-3-yl-phenyl)-4,4-dimethyl-1,4-dihydro-benzo[d][1,3]oxazin-2-one]",200 to 203 °C
12,"CC(C)(C)OC(=O)n1cccc1-c1ccc2c(c1)C(C)(C)OC(=O)N2 [Example 94, 2-(4,4-Dimethyl-2-oxo-1,4dihydro-2H-benzo[d][1,3]oxazin-6-yl)-pyrrole-1-carboxylic acid tert-butyl ester]",176 °C
13,"CC1(C)OC(=O)Nc2ccc(-c3coc(C=NO)c3)cc21 [Example 145, 4-(1,4-Dihydro-4,4-dimethyl-2-oxo-2H-3,1-benzoxazin-6-yl)-2-furancarboxaldehyde oxime]",236 to 238 °C

# Continued, values first:
row,melting point,Structure (SMILES)
1,158 to 159 °C,"CC1(C)OC(=O)Nc2ccc(-c3cccc(Cl)c3)cc21 [Example 5, 6-(3-Chlorophenyl)-4,4-dimethyl-1,4-dihydrobenzo[d][1,3]oxazin-2-one]"
2,236 to 237 °C,"CC1(C)OC(=O)Nc2ccc(-c3cccc(C#N)c3)cc21 [Example 12, 3-(4,4-Dimethyl-2-oxo-1,4-dihydro-2H-benzo[d][1,3]oxazin-6-yl)-benzonitrile]"
3,193 to 194 °C,"CCC1(CC)OC(=O)Nc2ccc(-c3cccc([N+](=O)[O-])c3)cc21 [Example 24, 4,4-Diethyl-6-(3-nitrophenyl)-1,4-dihydrobenzo[d][1,3]oxazin-2-one]"
4,150 to 151 °C,"CCC1(CC)OC(=O)Nc2ccc(-c3cccc(Cl)c3)cc21 [Example 25, 6-(3-Chlorophenyl)-4,4-diethyl-1,4-dihydrobenzo[d][1,3]oxazin-2-one]"
5,184 to 185 °C,"CC#CC1(C)OC(=O)Nc2ccc(-c3cccc(Cl)c3)cc21 (centres unmarked) [Example 37, 6-(3-Chlorophenyl)-4-methyl-4-propyn-1-yl-1,4-dihydro-benzo[d][1,3]oxazin-2-one]"
6,185 to 186 °C,"C#CC1(C)OC(=O)Nc2ccc(-c3cccc(Cl)c3)cc21 (centres unmarked) [Example 38, 6-(3-Chlorophenyl)-4-ethynyl-4-methyl-1,4-dihydro-benzo[d][1,3]oxazin-2-one]"
7,198 to 200 °C,"O=C1Nc2ccc(-c3cccc(Cl)c3)cc2C(C2CC2)(C2CC2)O1 [Example 43, 6-(3-Chloro-phenyl)-4,4-dicyclopropyl-1,4-dihydro-benzo[d][1,3]oxazin-2-one]"
8,178 to 179 °C,"COc1cccc(-c2ccc3c(c2)C(C)(C(F)(F)F)OC(=O)N3)c1 (centres unmarked) [Example 48, 6-(3-Methoxyphenyl)-4-methyl-4-trifluoromethyl-1,4-dihydro-benzo[d][1,3]oxazin-2-one]"
9,212 to 213 °C,"CC1(C)OC(=O)Nc2ccc(-c3cccc(C#CC#N)c3)cc21 [Example 75, 3-[3-(4,4-Dimethyl-2-oxo-1,4-dihydro-2H-benzo[d][1,3]oxazin-6-yl)-phenyl]-propynenitrile]"
10,265 °C (dec.),"CC1(C)OC(=O)Nc2ccc(-c3ccc([N+](=O)[O-])[nH]3)cc21 [Example 96, 4,4-Dimethyl-6-(5-nitro-1H-pyrrol-2-yl)-1,4-dihydrobenzo[d][1,3]oxazin-2-one]"
11,242 to 244 °C (dec.),"CC1(C)OC(=O)Nc2ccc(-c3cccc(S(N)(=O)=O)c3)cc21 [Example 140, 3-(4,4-Dimethyl-2-oxo-1,4-dihydro-2H-benzo[d][1,3]-oxazin-6-yl)benzenesulfonamide]"
